“Also recorded” adds a separate entry of the source. Like-named read-outs stand apart in the source and are kept apart here.
System: MRSA
Assay: Potentiating effect of galloyl quinic acid derivatives for the antibacterial activity of oxacillin (agar plate dilution method, MIC)
Type: cell-based, Staphylococcus aureus
Method: According to the agar plate dilution method defined by Japan Society of Chemotherapy, MIC (Minimum inhibitory concentration) was determined. CAMHA was prepared by adding 50 mg/l of Ca-ion, 25 mg/l of Mg-ion, and 2% of NaCl to Mueller-Hinton II Agar (MHA), and it was used as a medium for use in the measurement of sensitivity. The bacterial liquid was incubated at 37° C. overnight and diluted to 10^6 CFU/ml with saline.
It was confirmed that the known substances shown below were contained in “Tara” and their MICs were determined as described in example 2 with respect to the effects of the combination use with oxacillin

[1] = ATCC 6538, with 12.5 μg/ml of compound
[2] = ATCC 6538, with 25 μg/ml of compound
[3] = ATCC 6538, with 50 μg/ml of compound
[4] = MRSA 1, with 12.5 μg/ml of compound
[5] = MRSA 1, with 25 μg/ml of compound
[6] = MRSA 1, with 50 μg/ml of compound
[7] = MRSA 2, with 12.5 μg/ml of compound
[8] = MRSA 2, with 25 μg/ml of compound
[9] = MRSA 2, with 50 μg/ml of compound
[10] = MRSA 3, with 12.5 μg/ml of compound
[11] = MRSA 3, with 25 μg/ml of compound
[12] = MRSA 3, with 50 μg/ml of compound
[13] = MRSA 4, with 12.5 μg/ml of compound
[14] = MRSA 4, with 25 μg/ml of compound
[15] = MRSA 4, with 50 μg/ml of compound
[16] = MRSA 5, with 12.5 μg/ml of compound
[17] = MRSA 5, with 25 μg/ml of compound
[18] = MRSA 5, with 50 μg/ml of compound
[19] = MRSA 6, with 12.5 μg/ml of compound
[20] = MRSA 6, with 25 μg/ml of compound
[21] = MRSA 6, with 50 μg/ml of compound
[22] = MRSA 7, with 12.5 μg/ml of compound
[23] = MRSA 7, with 25 μg/ml of compound
[24] = MRSA 7, with 50 μg/ml of compound
[25] = MRSA 8, with 12.5 μg/ml of compound
[26] = MRSA 8, with 25 μg/ml of compound
[27] = MRSA 8, with 50 μg/ml of compound
[28] = MRSA 9, with 12.5 μg/ml of compound
[29] = MRSA 9, with 25 μg/ml of compound
[30] = MRSA 9, with 50 μg/ml of compound
[31] = MRSA 10, with 12.5 μg/ml of compound
[32] = MRSA 10, with 25 μg/ml of compound
[33] = MRSA 10, with 50 μg/ml of compound
[34] = MRSA 12, with 12.5 μg/ml of compound
[35] = MRSA 12, with 25 μg/ml of compound
[36] = MRSA 12, with 50 μg/ml of compound
[37] = MRSA 16, with 12.5 μg/ml of compound
[38] = MRSA 16, with 25 μg/ml of compound
[39] = MRSA 16, with 50 μg/ml of compound
[40] = MRSA 17, with 12.5 μg/ml of compound
[41] = MRSA 17, with 25 μg/ml of compound
[42] = MRSA 17, with 50 μg/ml of compound
[43] = MRSA 18, with 12.5 μg/ml of compound
[44] = MRSA 18, with 25 μg/ml of compound
[45] = MRSA 18, with 50 μg/ml of compound
[46] = MRSA 20, with 12.5 μg/ml of compound
[47] = MRSA 20, with 25 μg/ml of compound
[48] = MRSA 20, with 50 μg/ml of compound
[49] = MRSA 21, with 12.5 μg/ml of compound
[50] = MRSA 21, with 25 μg/ml of compound
[51] = MRSA 21, with 50 μg/ml of compound
[52] = MRSA 22, with 12.5 μg/ml of compound
[53] = MRSA 22, with 25 μg/ml of compound
[54] = MRSA 22, with 50 μg/ml of compound
[55] = MRSA COL, with 12.5 μg/ml of compound
[56] = MRSA COL, with 25 μg/ml of compound
[57] = MRSA COL, with 50 μg/ml of compound
[58] = MSSA 1003, with 12.5 μg/ml of compound
[59] = MSSA 1003, with 25 μg/ml of compound
[60] = MSSA 1003, with 50 μg/ml of compound
[61] = MSSA 1010, with 12.5 μg/ml of compound
[62] = MSSA 1010, with 25 μg/ml of compound
[63] = MSSA 1010, with 50 μg/ml of compound
[64] = MSSA 1032, with 12.5 μg/ml of compound
[65] = MSSA 1032, with 25 μg/ml of compound
[66] = MSSA 1032, with 50 μg/ml of compound
[67] = RN4220, with 12.5 μg/ml of compound
[68] = RN4220, with 25 μg/ml of compound
[69] = RN4220, with 50 μg/ml of compound

COC(=O)C1(O)CC(O)C(OC(=O)c2cc(O)c(O)c(O)c2)C(OC(=O)c2cc(O)c(O)c(O)c2)C1 (stereo not shown) [compound 1]
Oxacillin MIC [1]: <0.5 µg/mL
Oxacillin MIC [2]: <0.063 µg/mL
Oxacillin MIC [3]: <0.5 µg/mL
Oxacillin MIC [4]: 128 µg/mL
Oxacillin MIC [5]: 128 µg/mL
Oxacillin MIC [6]: 128 µg/mL
Oxacillin MIC [7]: 2 µg/mL
Oxacillin MIC [8]: 2 µg/mL
Oxacillin MIC [9]: 2 µg/mL
Oxacillin MIC [10]: <0.5 µg/mL
Oxacillin MIC [11]: 0.5 µg/mL
Oxacillin MIC [12]: 1 µg/mL
Oxacillin MIC [13]: 128 µg/mL
Oxacillin MIC [14]: 128 µg/mL
Oxacillin MIC [15]: 32 µg/mL
Oxacillin MIC [16]: 128 µg/mL
Oxacillin MIC [17]: 32 µg/mL
Oxacillin MIC [18]: 64 µg/mL
Oxacillin MIC [19]: 2 µg/mL
Oxacillin MIC [20]: 2 µg/mL
Oxacillin MIC [21]: 4 µg/mL
Oxacillin MIC [22]: 32 µg/mL
Oxacillin MIC [23]: 16 µg/mL
Oxacillin MIC [24]: 16 µg/mL
Oxacillin MIC [25]: <0.5 µg/mL
Oxacillin MIC [26]: 16 µg/mL
Oxacillin MIC [27]: 1 µg/mL
Oxacillin MIC [28]: 16 µg/mL
Oxacillin MIC [29]: 16 µg/mL
Oxacillin MIC [30]: 8 µg/mL
Oxacillin MIC [31]: 4 µg/mL
Oxacillin MIC [32]: 8 µg/mL
Oxacillin MIC [33]: 8 µg/mL
Oxacillin MIC [34]: 16 µg/mL
Oxacillin MIC [35]: 16 µg/mL
Oxacillin MIC [36]: 16 µg/mL
Oxacillin MIC [37]: 128 µg/mL
Oxacillin MIC [38]: 128 µg/mL
Oxacillin MIC [39]: 64 µg/mL
Oxacillin MIC [40]: 32 µg/mL
Oxacillin MIC [41]: 32 µg/mL
Oxacillin MIC [42]: 4 µg/mL
Oxacillin MIC [43]: 128 µg/mL
Oxacillin MIC [44]: 128 µg/mL
Oxacillin MIC [45]: 32 µg/mL
Oxacillin MIC [46]: <0.5 µg/mL
Oxacillin MIC [47]: 0.25 µg/mL
Oxacillin MIC [48]: <0.5 µg/mL
Oxacillin MIC [49]: <0.5 µg/mL
Oxacillin MIC [50]: 0.25 µg/mL
Oxacillin MIC [51]: 1 µg/mL
Oxacillin MIC [52]: 1 µg/mL
Oxacillin MIC [53]: 0.5 µg/mL
Oxacillin MIC [54]: 1 µg/mL
Oxacillin MIC [55]: 8 µg/mL
Oxacillin MIC [56]: 32 µg/mL
Oxacillin MIC [57]: 2 µg/mL
Oxacillin MIC [58]: <0.5 µg/mL
Oxacillin MIC [59]: 0.25 µg/mL
Oxacillin MIC [60]: <0.5 µg/mL
Oxacillin MIC [61]: <0.5 µg/mL
Oxacillin MIC [62]: 0.5 µg/mL
Oxacillin MIC [63]: <0.5 µg/mL
Oxacillin MIC [64]: <0.5 µg/mL
Oxacillin MIC [65]: 0.25 µg/mL
Oxacillin MIC [66]: <0.5 µg/mL
Oxacillin MIC [67]: <0.5 µg/mL
Oxacillin MIC [68]: 0.125 µg/mL
Oxacillin MIC [69]: <0.5 µg/mL

O=C(OC1CC(O)(C(=O)O)CC(O)C1OC(=O)c1cc(O)c(O)c(O)c1)c1cc(O)c(O)c(O)c1 (stereo not shown) [compound 4]
Oxacillin MIC [1]: <0.5 µg/mL
Oxacillin MIC [2]: <0.5 µg/mL
Oxacillin MIC [3]: <0.5 µg/mL
Oxacillin MIC [4]: >256 µg/mL
Oxacillin MIC [5]: >256 µg/mL
Oxacillin MIC [6]: >256 µg/mL
Oxacillin MIC [7]: >256 µg/mL
Oxacillin MIC [8]: 256 µg/mL
Oxacillin MIC [9]: 256 µg/mL
Oxacillin MIC [10]: 256 µg/mL
Oxacillin MIC [11]: 256 µg/mL
Oxacillin MIC [12]: 128 µg/mL
Oxacillin MIC [13]: >256 µg/mL
Oxacillin MIC [14]: >256 µg/mL
Oxacillin MIC [15]: >256 µg/mL
Oxacillin MIC [16]: >256 µg/mL
Oxacillin MIC [17]: ≅256 μg/ml
Oxacillin MIC [18]: >256 µg/mL
Oxacillin MIC [19]: 256 µg/mL
Oxacillin MIC [20]: 256 µg/mL
Oxacillin MIC [21]: 128 µg/mL
Oxacillin MIC [22]: >256 µg/mL
Oxacillin MIC [23]: >256 µg/mL
Oxacillin MIC [24]: >256 µg/mL
Oxacillin MIC [25]: 256 µg/mL
Oxacillin MIC [26]: 128 µg/mL
Oxacillin MIC [27]: 128 µg/mL
Oxacillin MIC [28]: >256 µg/mL
Oxacillin MIC [29]: >256 µg/mL
Oxacillin MIC [30]: >256 µg/mL
Oxacillin MIC [31]: 128 µg/mL
Oxacillin MIC [32]: 128 µg/mL
Oxacillin MIC [33]: 128 µg/mL
Oxacillin MIC [34]: >256 µg/mL
Oxacillin MIC [35]: >256 µg/mL
Oxacillin MIC [36]: >256 µg/mL
Oxacillin MIC [37]: >256 µg/mL
Oxacillin MIC [38]: >256 µg/mL
Oxacillin MIC [39]: >256 µg/mL
Oxacillin MIC [40]: 256 µg/mL
Oxacillin MIC [41]: 256 µg/mL
Oxacillin MIC [42]: 256 µg/mL
Oxacillin MIC [43]: >256 µg/mL
Oxacillin MIC [44]: >256 µg/mL
Oxacillin MIC [45]: >256 µg/mL
Oxacillin MIC [46]: 32 µg/mL
Oxacillin MIC [47]: 16 µg/mL
Oxacillin MIC [48]: 16 µg/mL
Oxacillin MIC [49]: 128 µg/mL
Oxacillin MIC [50]: 128 µg/mL
Oxacillin MIC [51]: 64 µg/mL
Oxacillin MIC [52]: 64 µg/mL
Oxacillin MIC [53]: 64 µg/mL
Oxacillin MIC [54]: 64 µg/mL
Oxacillin MIC [55]: >256 µg/mL
Oxacillin MIC [56]: >256 µg/mL
Oxacillin MIC [57]: >256 µg/mL
Oxacillin MIC [58]: <0.5 µg/mL
Oxacillin MIC [59]: <0.5 µg/mL
Oxacillin MIC [60]: <0.5 µg/mL
Oxacillin MIC [61]: <0.5 µg/mL
Oxacillin MIC [62]: <0.5 µg/mL
Oxacillin MIC [63]: <0.5 µg/mL
Oxacillin MIC [64]: <0.5 µg/mL
Oxacillin MIC [65]: <0.5 µg/mL
Oxacillin MIC [66]: <0.5 µg/mL
Oxacillin MIC [67]: <0.5 µg/mL
Oxacillin MIC [68]: <0.5 µg/mL
Oxacillin MIC [69]: <0.5 µg/mL

COC(=O)C1(O)CC(OC(=O)c2cc(O)c(O)c(O)c2)C(OC(=O)c2cc(O)c(O)c(O)c2)C(OC(=O)c2cc(O)c(O)c(O)c2)C1 (stereo not shown) [Methyl 3,4,5-trigalloylquinate, methyl 3,4,5-trigalloylquinate]
effect of combination use with oxacillin (words): weak effects

COC(=O)C1(O)CC(O)C(OC(=O)c2cc(O)c(O)c(O)c2)C(OC(=O)c2cc(O)c(O)c(O)c2)C1 (stereo not shown) [Methyl 4,5-digalloylquinate, methyl 4,5-digalloylquinate]
effect of combination use with oxacillin (words): follows
effect of combination use with oxacillin (words) (listed as methyl 4,5-digalloylquinate): excellent

O=C(OC1CC(O)(C(=O)O)CC(OC(=O)c2cc(O)c(O)c(O)c2)C1OC(=O)c1cc(O)c(O)c(O)c1)c1cc(O)c(O)c(O)c1 (stereo not shown) [3,4,5-trigalloylquinic acid]
effect of combination use with oxacillin (words): excellent; also recorded: most potent

Source: patent US20060235076A1, “Medicinal composition for treating infection with drug-resistant staphylococcus aureus” (priority 2003, published 2006)
